Values of other authors in patent publication EP2727592A1 (Kücükgüzel, Sükriye Güniz, priority 2012, dated 2014).

Legend:
[1] = in vivo
[2] = not given; remark: listed apart in the source

Structure (SMILES): CC(=O)Nc1ccc(O)cc1 [PAR, 4-hydroxyacetanilide]
- time to reach the highest amount of plasma concentration (customary dose orally): 90 min
- Elimination half life (in vivo): 3.3 h
- Oral bioavailability (oral): 63 - 89%
- eliminated without transformation [1]: 5%
- turns into N-acetyl-p-benzoquinonimine (NAPQI) with oxidation [1]: 5%
- turns into glucuronide and sulphate conjugate [1]: 90%
- dose leading to nausea, vomiting, stomach ache, then liver failure and acute liver necrosis ([2]; adults): more than 10 g
- paediatric toxic dose ([2]; children): 200 mg/kg
- dose at which the fatality risk shall increase ([2]; taken in one go): over 20 g
